“Also recorded” adds a separate entry of the source.
Assay: Fecal SCFA analysis by gas chromatography in piglets given NR solution
Type: in vivo, piglets (Yorkshire/Hampshire crossbred)
Description: Sixteen (n=16) Yorkshire/Hampshire crossbred piglets were obtained from the University of California, Davis Swine Teaching and Research Center and received on lactation day (“LD”) 14. Prior to arrive, the piglets were processed by the suppler between 1-3 days of age by administration of iron and an antibiotic ([…] for swine) as is common practice at the University of California, Davis Swine Facility. It is not common practice at the University of California, Davis Swine Facility to give a second dose of iron and antibiotics unless it becomes necessary. The piglets were from two litters (litters 15 and 17), weaned at 17 days of age, and randomly placed into one of two groups balanced for litter, sex, and weight. The animals were not acclimated to the facility at arrival and were subsequently acclimated to the test diet administration system. The piglets were weaned into a temperature-controlled room (approximately 27-29° C.) that contained 10 adjacent pens. The piglets were group-housed in the nursery room at the Swine Facility, which is an enclosed room with access restricted to trained personnel. The two groups were separated by one pen containing piglets of similar age. Each morning enough nicotinamide riboside (NR, I) in water solution was prepared for that day's dose administration according to the dose preparation protocol. At least 5 mL of prepared dose was reserved and immediately frozen after preparation each day for analysis of nicotinamide riboside (NR, I) for the purpose of confirming stability of the dose material. The doses were stored at refrigeration temperature while not in use. Nicotinamide riboside (NR, I) was dosed once per day in the morning and at the same time each day. Piglets in the control group received the same volume of plain water and were dosed on the same schedule. Starting on Day 1, animals in the nicotinamide riboside (NR, I) group were dosed once daily (in the morning) with 277 mg nicotinamide riboside (NR, I) per pig resuspended in water for seven days. After one week, animals were dosed once daily with 342 mg nicotinamide riboside (NR, I) per pig delivered in 2.5 mL for seven days. For Days 1 and 2, the nicotinamide riboside (NR, I) solution was prepared by resuspending 2770 mg nicotinamide riboside (NR, I) in 50 mL water, and 5 mL of this solution was delivered to each pig by squirting it into the back of the mouth using a 10 mL syringe with a piece of tubing attached to the end. To reduce the volume to more efficiently deliver the nicotinamide riboside (NR, I) solution, the 2770 mg was resuspended in 25 mL water and 2.5 mL of the solution was squirted into the back of the mouth of each pig using a 3 mL syringe for Days 3-7. For Days 8-14, 3420 mg nicotinamide riboside (NR, I) was resuspended in 25 mL water and 2.5 mL of this solution was delivered to each pig. Each day prior to dosing, 2.5 mL of the nicotinamide riboside (NR, I) (5 mL on Days 1 and 2) were placed into a separate tube and frozen. Fresh fecal samples were collected from each pig on Days 1 (baseline), 8 (Wk 1), and 14 (Wk 2), and frozen. When a freshly voided sample could not be obtained, the rectum was swabbed. A total of 100 mg of feces from each pig was used for SCFA analysis using gas chromatography with known standards for acetic acid, propionic acid, isobutyric acid, butyric acid, isovaleric acid, and valeric acid. Samples were extracted with 25% metaphosphoric acid and each extraction run in triplicate on a GC equipped with the PeakSimple Chromatography Data System. Data was analyzed using a one-way ANoVA or the non-parametric Kruskal-Wallis test if the distribution of values was not Gaussian. A conservative analysis of the data is presented below (animals that had to be swabbed to get a fecal sample) in Table 3 and an analysis of the data including the swab samples is in Table 8. The trends are similar, the p-values are not.

[1] = 1 week of daily administration of 277 mg of NR in water
[2] = Wk 1, 277 mg/pig once daily oral
[3] = including the swab samples, Baseline, before dosing
[4] = including the swab samples, Wk 1, 277 mg/pig once daily oral
[5] = including the swab samples, third column group, headed 'Wk 1' again
[6] = without swab samples, Baseline, before dosing
[7] = without swab samples, Wk 1, 277 mg/pig once daily oral
[8] = without swab samples, third column group, headed 'Wk 1' again

NC(=O)c1ccc[n+]([C@@H]2O[C@H](CO)[C@@H](O)[C@H]2O)c1 [NR, Nicotinamide riboside]
Fecal SCFA levels [1]: increased | fecal acetic acid (C2), propionic acid (C3), and butyric acid (C4) [1]: marked increases | Fecal SCFA Acetic Acid, Δ vs. baseline (NR) [2]: 15.1 ppm | Fecal SCFA Butyric Acid, Δ vs. baseline (NR) [2]: 26.3 ppm | Fecal SCFA Isobutyric Acid, Δ vs. baseline (NR) [2]: −3.4 ppm | Fecal SCFA Isovaleric Acid, Δ vs. baseline (NR) [2]: −4.3 ppm | Fecal SCFA Propionic Acid, Δ vs. baseline (NR) [2]: 35.9 ppm | Fecal SCFA Valeric Acid, Δ vs. baseline (NR) [2]: 5.4 ppm | Fecal SCFA Acetic Acid, Significant change from baseline within group (Wk 1 vs. baseline): No | Fecal SCFA Butyric Acid, Significant change from baseline within group (Wk 1 vs. baseline): statistically significant; also recorded: Yes, P < 0.05 | Fecal SCFA Isobutyric Acid, Significant change from baseline within group (Wk 1 vs. baseline): No | Fecal SCFA Isovaleric Acid, Significant change from baseline within group (Wk 1 vs. baseline): No | Fecal SCFA Propionic Acid, Significant change from baseline within group (Wk 1 vs. baseline): statistically significant; also recorded: Yes, P < 0.05 | Fecal SCFA Valeric Acid, Significant change from baseline within group (Wk 1 vs. baseline): No | Fecal SCFA Isobutyric Acid (including the swab samples): 7.9 ± 10.9 ppm | Fecal SCFA Propionic Acid (including the swab samples): 51.5 ± 45.7 ppm | Fecal SCFA Valeric Acid (including the swab samples): 7.8 ± 11.3 ppm | Fecal SCFA Acetic Acid [3]: 43.5 ± 23.5 ppm | Fecal SCFA Butyric Acid [3]: 11.1 ± 18.4 ppm | Fecal SCFA Isobutyric Acid [3]: 9.5 ± 9.3 ppm | Fecal SCFA Isovaleric Acid [3]: 16.8 ± 14.0 ppm | Fecal SCFA Propionic Acid [3]: 15.3 ± 10.6 ppm | Fecal SCFA Valeric Acid [3]: 2.4 ± 6.9 ppm | Fecal SCFA Acetic Acid [4]: 58.6 ± 14.5 ppm | Fecal SCFA Butyric Acid [4]: 37.4 ± 16.8 ppm | Fecal SCFA Isobutyric Acid [4]: 6.1 ± 6.4 ppm | Fecal SCFA Isovaleric Acid [4]: 12.5 ± 9.1 ppm | Fecal SCFA Propionic Acid [4]: 51.2 ± 13.2 ppm | Fecal SCFA Valeric Acid [4]: 7.8 ± 6.6 ppm | Fecal SCFA Acetic Acid [5]: 70.1 ± 62.6 ppm | Fecal SCFA Butyric Acid [5]: 41.2 ± 34.6 ppm | Fecal SCFA Isovaleric Acid [5]: 11.3 ± 15.7 ppm | Fecal SCFA Isobutyric Acid (without swab samples): 15.9 ± 10.6 ppm | Fecal SCFA Propionic Acid (without swab samples): 90.0 ± 30.4 ppm | Fecal SCFA Valeric Acid (without swab samples): 15.7 ± 11.5 ppm | Fecal SCFA Acetic Acid [6]: 43.5 ± 23.5 ppm | Fecal SCFA Butyric Acid [6]: 11.1 ± 18.4 ppm | Fecal SCFA Isobutyric Acid [6]: 9.5 ± 9.3 ppm | Fecal SCFA Isovaleric Acid [6]: 16.8 ± 14.0 ppm | Fecal SCFA Propionic Acid [6]: 15.3 ± 10.6 ppm | Fecal SCFA Valeric Acid [6]: 2.4 ± 6.9 ppm | Fecal SCFA Acetic Acid [7]: 55.78 ± 13.4 ppm | Fecal SCFA Butyric Acid [7]: 36.9 ± 18.3 ppm | Fecal SCFA Isobutyric Acid [7]: 5.8 ± 6.5 ppm | Fecal SCFA Isovaleric Acid [7]: 11.9 ± 9.8 ppm | Fecal SCFA Propionic Acid [7]: 49.3 ± 13.3 ppm | Fecal SCFA Valeric Acid [7]: 6.7 ± 6.7 ppm | Fecal SCFA Acetic Acid [8]: 118.7 ± 55.01 ppm | Fecal SCFA Butyric Acid [8]: 70.8 ± 21.9 ppm | Fecal SCFA Isovaleric Acid [8]: 22.5 ± 15.5 ppm
